Data reported in US12178210B2, “Insect attractant and killing system” (priority 2020, dated 2024).
Read-outs that look alike come from different tables or passages of the source.

What was measured:
[1] = for Attractant Release Rate (5-day average per time point): Ambient Temperature
Text: All prototype lure devices (i.e., the attractant receptacle and permeable membrane with enclosed volatile insect attractant) were constructed using polypropylene/calcium carbonate film (UV8) for the permeable membrane and Scotchpak™ (3M) polyester laminate film for the impermeable barrier material. Each lure device measured approximately 11.5 cm×5.5 cm with a 1.6 mm ( 1/16 in) diameter spherical punch in the impermeable layer exposing the membrane and an ˜8 mm ( 5/16 in) diameter heat seal around the circumference of the punch (referred to as a ring seal). […] Prior to being deployed the lures were weighed on an analytical balance (Sartorius, Universal; resolution of 0.01 g). Prototype lures were attached to a cord that ran the length of ventilated laboratory fume hood, with 5-8 cm (2-3 in) separating each lure in an open, ventilated room at the indicated temperature (18-20° C. or 39-41° C.). Every 2-3 days the lures were removed from the cord and weighed on the same scale. Lure weight was recorded and the weight loss (g/day) was calculated. In addition to prototype lures, two controls were included in the study consisting of a current Suterra lure product (WHF lure) and a competitor product (Comp. Prod. 1).

[2] = field, Valencia
Experimental: Every two weeks samples of the attractant were weighed to determine the mass. From the mass, the mass that had been released, the mass remaining, and the amount of ammonia released was determined.

With N.NC(=O)O [Ammonium Carbamate, ammonium carbamate] the “Release Rate” value ([1]; 40° C., 16 hours, UV8 membrane, 1.6 mm orifice) was 0.49 g/day, the “Release Rate” value ([1]; 40° C., 16 hours, second, unexplained block of rows) was 0.02 g/day and the “Release Rate” value ([1]; 40° C., 24 hours, UV8 membrane, 1.6 mm orifice) was 0.49 g/day. For the same compound, the “Release Rate” value ([1]; 40° C., 24 hours, second, unexplained block of rows) was 0.01 g/day, the “Release Rate” value ([1]; 40° C., 51 hours, UV8 membrane, 1.6 mm orifice) was 0.46 g/day and the “Release Rate” value ([1]; 40° C., 51 hours, second, unexplained block of rows) was 0.01 g/day. For the same compound, the “Release Rate” value ([1]; 40° C., 88 hours, UV8 membrane, 1.6 mm orifice) was 0.45 g/day, the “Release Rate” value ([1]; 40° C., 88 hours, second, unexplained block of rows) was 0.04 g/day and the “Release Rate” value ([1]; 40° C., 96 hours, UV8 membrane, 1.6 mm orifice) was 0.46 g/day. For the same compound, the “Release Rate” value ([1]; 40° C., 96 hours, second, unexplained block of rows) was 0.06 g/day, the “Release Rate” value ([1]; 40° C., 112 hours, UV8 membrane, 1.6 mm orifice) was 0.46 g/day and the “Release Rate” value ([1]; 40° C., 112 hours, second, unexplained block of rows) was 0.08 g/day. The “Release Rate” value ([1]; 40° C., 120 hours, UV8 membrane, 1.6 mm orifice) was 0.46 g/day, the “Release Rate” value ([1]; 40° C., 120 hours, second, unexplained block of rows) was 0.09 g/day and the “Release Rate” value ([1]; 40° C., 144 hours, UV8 membrane, 1.6 mm orifice) was 0.46 g/day. For the same compound, the “Release Rate” value ([1]; 40° C., 144 hours, second, unexplained block of rows) was 0.11 g/day, the “Release Rate” value ([1]; 40° C., 168 hours, UV8 membrane, 1.6 mm orifice) was 0.46 g/day and the “Release Rate” value ([1]; 40° C., 168 hours, second, unexplained block of rows) was 0.13 g/day. For the same compound, the “Attractant Release Rate (5-day average per time point)” value ([1]; day 5, 15 g, UV8 membrane, 1.6 mm orifice) was 89.2 mg/day, the “Attractant Release Rate (5-day average per time point)” value ([1]; day 10, 15 g, UV8 membrane, 1.6 mm orifice) was 93.6 mg/day and the “Attractant Release Rate (5-day average per time point)” value ([1]; day 15, 15 g, UV8 membrane, 1.6 mm orifice) was 97.0 mg/day. For the same compound, the “Attractant Release Rate (5-day average per time point)” value ([1]; day 20, 15 g, UV8 membrane, 1.6 mm orifice) was 101.0 mg/day, the “Attractant Release Rate (5-day average per time point)” value ([1]; day 25, 15 g, UV8 membrane, 1.6 mm orifice) was 100.0 mg/day and the “Attractant Release Rate (5-day average per time point)” value ([1]; day 30, 15 g, UV8 membrane, 1.6 mm orifice) was 105.3 mg/day. For the same compound, the “Attractant Release Rate (5-day average per time point)” value ([1]; day 40, 15 g, UV8 membrane, 1.6 mm orifice) was 99.6 mg/day, the “Attractant Release Rate (5-day average per time point)” value ([1]; day 49, 15 g, UV8 membrane, 1.6 mm orifice) was 113.5 mg/day and the “Attractant Release Rate (5-day average per time point)” value ([1]; day 55, 15 g, UV8 membrane, 1.6 mm orifice) was 114.3 mg/day. The “Release Rate” value ([1]; Ambient, 16 hours, UV8 membrane, 1.6 mm orifice) was 0.09 g/day, the “Release Rate” value ([1]; Ambient, 16 hours, second, unexplained block of rows) was 0.00 g/day and the “Release Rate” value ([1]; Ambient, 24 hours, UV8 membrane, 1.6 mm orifice) was 0.10 g/day. For the same compound, the “Release Rate” value ([1]; Ambient, 24 hours, second, unexplained block of rows) was 0.01 g/day, the “Release Rate” value ([1]; Ambient, 51 hours, UV8 membrane, 1.6 mm orifice) was 0.10 g/day and the “Release Rate” value ([1]; Ambient, 51 hours, second, unexplained block of rows) was 0.00 g/day. For the same compound, the “Release Rate” value ([1]; Ambient, 88 hours, UV8 membrane, 1.6 mm orifice) was 0.10 g/day, the “Release Rate” value ([1]; Ambient, 88 hours, second, unexplained block of rows) was 0.02 g/day and the “Release Rate” value ([1]; Ambient, 96 hours, UV8 membrane, 1.6 mm orifice) was 0.10 g/day. The “Release Rate” value ([1]; Ambient, 96 hours, second, unexplained block of rows) was 0.02 g/day, the “Release Rate” value ([1]; Ambient, 112 hours, UV8 membrane, 1.6 mm orifice) was 0.10 g/day and the “Release Rate” value ([1]; Ambient, 112 hours, second, unexplained block of rows) was 0.02 g/day. For the same compound, the “Release Rate” value ([1]; Ambient, 120 hours, UV8 membrane, 1.6 mm orifice) was 0.10 g/day, the “Release Rate” value ([1]; Ambient, 120 hours, second, unexplained block of rows) was 0.00 g/day and the “Release Rate” value ([1]; Ambient, 144 hours, UV8 membrane, 1.6 mm orifice) was 0.10 g/day. For the same compound, the “Release Rate” value ([1]; Ambient, 144 hours, second, unexplained block of rows) was 0.00 g/day, the “Release Rate” value ([1]; Ambient, 168 hours, UV8 membrane, 1.6 mm orifice) was 0.10 g/day and the “Release Rate” value ([1]; Ambient, 168 hours, second, unexplained block of rows) was 0.00 g/day. For the same compound, the “Attractant Release Rate (5-day average per time point)” value ([1]; day 5, CM) was 393.2 mg/day, the “Attractant Release Rate (5-day average per time point)” value ([1]; day 10, CM) was 387.2 mg/day and the “Attractant Release Rate (5-day average per time point)” value ([1]; day 15, CM) was 362.0 mg/day. For the same compound, the “Attractant Release Rate (5-day average per time point)” value ([1]; day 20, CM) was 356.0 mg/day, the “Attractant Release Rate (5-day average per time point)” value ([1]; day 25, CM) was 331.6 mg/day and the “Attractant Release Rate (5-day average per time point)” value ([1]; day 30, CM) was 311.7 mg/day. The “Attractant Release Rate (5-day average per time point)” value ([1]; day 35, CM) was 306.5 mg/day, the “Attractant Release Rate (5-day average per time point)” value ([1]; day 40, CM) was 266.0 mg/day and the “Attractant Release Rate (5-day average per time point)” value ([1]; day 45, CM) was 191.6 mg/day. The “Attractant Release Rate (5-day average per time point)” value ([1]; day 49, CM) was 94.0 mg/day, the “Attractant Release Rate (5-day average per time point)” value ([1]; day 55, CM) was 10.3 mg/day and the “Avg. Mass Loss” value ([2]; week 0, ave. temp. 25.10 ° C) was 0.00 g. For the same compound, the “Avg. Mass Remaining” value ([2]; week 0, ave. temp. 25.10 ° C) was 16.90 g, the “Avg. Release Rate” value ([2]; week 0, ave. temp. 25.10 ° C) was 0.000 g/day and the “Avg. Mass Loss” value ([2]; week 2, ave. temp. 26.30 ° C) was 0.75 g. The “Avg. Mass Remaining” value ([2]; week 2, ave. temp. 26.30 ° C) was 16.15 g, the “Avg. Release Rate” value ([2]; week 2, ave. temp. 26.30 ° C) was 0.054 g/day and the “Avg. Mass Loss” value ([2]; week 4, ave. temp. 26.90 ° C) was 1.75 g. The “Avg. Mass Remaining” value ([2]; week 4, ave. temp. 26.90 ° C) was 15.15 g, the “Avg. Release Rate” value ([2]; week 4, ave. temp. 26.90 ° C) was 0.071 g/day and the “Avg. Mass Loss” value ([2]; week 6, ave. temp. 27.10 ° C) was 2.65 g. The “Avg. Mass Remaining” value ([2]; week 6, ave. temp. 27.10 ° C) was 14.25 g, the “Avg. Release Rate” value ([2]; week 6, ave. temp. 27.10 ° C) was 0.064 g/day and the “Avg. Mass Loss” value ([2]; week 8, ave. temp. 24.40 ° C) was 3.48 g. For the same compound, the “Avg. Mass Remaining” value ([2]; week 8, ave. temp. 24.40 ° C) was 13.42 g, the “Avg. Release Rate” value ([2]; week 8, ave. temp. 24.40 ° C) was 0.059 g/day and the “Avg. Mass Loss” value ([2]; week 10, ave. temp. 22.60 ° C) was 4.17 g. For the same compound, the “Avg. Mass Remaining” value ([2]; week 10, ave. temp. 22.60 ° C) was 12.72 g, the “Avg. Release Rate” value ([2]; week 10, ave. temp. 22.60 ° C) was 0.050 g/day and the “Avg. Mass Loss” value ([2]; week 12, ave. temp. 21.50 ° C) was 4.82 g. The “Avg. Mass Remaining” value ([2]; week 12, ave. temp. 21.50 ° C) was 12.08 g, the “Avg. Release Rate” value ([2]; week 12, ave. temp. 21.50 ° C) was 0.046 g/day and the “Avg. Mass Loss” value ([2]; week 14, ave. temp. 19.90 ° C) was 5.38 g. The “Avg. Mass Remaining” value ([2]; week 14, ave. temp. 19.90 ° C) was 11.52 g, the “Avg. Release Rate” value ([2]; week 14, ave. temp. 19.90 ° C) was 0.040 g/day and the “Avg. Mass Loss” value ([2]; week 16, ave. temp. 17.70 ° C) was 5.72 g. The “Avg. Mass Remaining” value ([2]; week 16, ave. temp. 17.70 ° C) was 11.18 g, the “Avg. Release Rate” value ([2]; week 16, ave. temp. 17.70 ° C) was 0.024 g/day and the “Avg. Mass Loss” value ([2]; week 18, ave. temp. 15.30 ° C) was 6.02 g. The “Avg. Mass Remaining” value ([2]; week 18, ave. temp. 15.30 ° C) was 10.88 g, the “Avg. Release Rate” value ([2]; week 18, ave. temp. 15.30 ° C) was 0.021 g/day and the “Avg. Mass Loss” value ([2]; week 20, ave. temp. 14.40 ° C) was 6.26 g. For the same compound, the “Avg. Mass Remaining” value ([2]; week 20, ave. temp. 14.40 ° C) was 10.64 g, the “Avg. Release Rate” value ([2]; week 20, ave. temp. 14.40 ° C) was 0.017 g/day and the “Avg. Mass Loss” value ([2]; week 24, ave. temp. 11.70 ° C) was 6.36 g. For the same compound, the “Avg. Mass Remaining” value ([2]; week 24, ave. temp. 11.70 ° C) was 10.54 g, the “Avg. Release Rate” value ([2]; week 24, ave. temp. 11.70 ° C) was 0.004 g/day and the “Avg. Mass Loss” value ([2]; week 28, ave. temp. […] C) was 6.71 g. The “Avg. Mass Remaining” value ([2]; week 28, ave. temp. […] C) was 10.19 g, the “Avg. Release Rate” value ([2]; week 28, ave. temp. […] C) was 0.013 g/day and the “Avg. Mass Loss” value ([2]; week 31, ave. temp. […] C) was 7.22 g. For the same compound, the “Avg. Mass Remaining” value ([2]; week 31, ave. temp. […] C) was 9.67 g, the “Avg. Release Rate” value ([2]; week 31, ave. temp. […] C) was 0.024 g/day and the “Avg. Mass Loss” value ([2]; week 35, ave. temp. 12.60 ° C) was 7.63 g. The “Avg. Mass Remaining” value ([2]; week 35, ave. temp. 12.60 ° C) was 9.26 g, the “Avg. Release Rate” value ([2]; week 35, ave. temp. 12.60 ° C) was 0.015 g/day and the “Avg. Mass Loss” value ([2]; week 38, ave. temp. 13.50 ° C) was 8.07 g. The “Avg. Mass Remaining” value ([2]; week 38, ave. temp. 13.50 ° C) was 8.83 g, the “Avg. Release Rate” value ([2]; week 38, ave. temp. 13.50 ° C) was 0.021 g/day and the “Avg. Mass Loss” value ([2]; week 39, ave. temp. 13.30 ° C) was 8.24 g. For the same compound, the “Avg. Mass Remaining” value ([2]; week 39, ave. temp. 13.30 ° C) was 8.66 g, the “Avg. Release Rate” value ([2]; week 39, ave. temp. 13.30 ° C) was 0.024 g/day and the “Avg. Mass Loss” value ([2]; week 41, ave. temp. 15.80 ° C) was 8.55 g. The “Avg. Mass Remaining” value ([2]; week 41, ave. temp. 15.80 ° C) was 8.35 g, the “Avg. Release Rate” value ([2]; week 41, ave. temp. 15.80 ° C) was 0.022 g/day and the “Avg. Mass Loss” value ([2]; week 43, ave. temp. 16.50 ° C) was 8.79 g. For the same compound, the “Avg. Mass Remaining” value ([2]; week 43, ave. temp. 16.50 ° C) was 8.11 g, the “Avg. Release Rate” value ([2]; week 43, ave. temp. 16.50 ° C) was 0.017 g/day and the “Avg. Mass Loss” value ([2]; week 46, ave. temp. 18.10 ° C) was 9.45 g. For the same compound, the “Avg. Mass Remaining” value ([2]; week 46, ave. temp. 18.10 ° C) was 7.44 g, the “Avg. Release Rate” value ([2]; week 46, ave. temp. 18.10 ° C) was 0.032 g/day and the “Avg. Mass Loss” value ([2]; week 47, ave. temp. 20.40 ° C) was 9.75 g. For the same compound, the “Avg. Mass Remaining” value ([2]; week 47, ave. temp. 20.40 ° C) was 7.14 g and the “Avg. Release Rate” value ([2]; week 47, ave. temp. 20.40 ° C) was 0.043 g/day.
